Assay results: ChEMBL document CHEMBL3877316, “Synthesis of pharmacologically important naphthoquinones and anticancer activity of 2-benzyllawsone through DNA topoisomerase-II inhibition” (Bioorg Med Chem, 2017)
The source made the active and inactive calls. The rule behind the calls is not given here.

Legend:
Mus musculus [1] = test: Acute toxicity in Swiss albino mouse assessed as serum albumin level at 50 mg/kg, po qd administered as single dose for 7 days (reference value: 2.49 +/- 0.17 g/dl); type: organism-based; settings: in vivo, 168 h
Mus musculus [2] = test: Acute toxicity in Swiss albino mouse assessed as effect on eosinophil count up to 1000 mg/kg, po qd administered as single dose for 7 days; type: organism-based; settings: in vivo, 168 h
Mus musculus [3] = test: Acute toxicity in Swiss albino mouse assessed as changes in relative weight of lungs up to 1000 mg/kg, po qd administered as single dose for 7 days; type: organism-based; settings: in vivo, 168 h
Mus musculus [4] = test: Acute toxicity in Swiss albino mouse assessed as effect on basophil count up to 1000 mg/kg, po qd administered as single dose for 7 days; type: organism-based; settings: in vivo, 168 h
Mus musculus [5] = test: Acute toxicity in Swiss albino mouse assessed as changes in response of mouse up to 1000 mg/kg, po qd administered as single dose for 7 days; type: organism-based; settings: in vivo, 168 h
Mus musculus [6] = test: Acute toxicity in Swiss albino mouse assessed as serum WBC level at 5 mg/kg, po qd administered as single dose for 7 days (reference value: 8.64 +/- 0.42 10^3/mm3); type: organism-based; settings: in vivo, 168 h
Mus musculus [7] = test: Acute toxicity in Swiss albino mouse assessed as serum RBC level at 1000 mg/kg, po qd administered as single dose for 7 days (reference value: 9.07 +/- 1.13 million/mm3); type: organism-based; settings: in vivo, 168 h
Mus musculus [8] = test: Acute toxicity in Swiss albino mouse assessed as serum triglycerides level at 50 mg/kg, po qd administered as single dose for 7 days (reference value: 107.9 +/- 10.7 mg/dl); type: organism-based; settings: in vivo, 168 h
Mus musculus [9] = test: Acute toxicity in Swiss albino mouse assessed as changes in relative weight of brain up to 1000 mg/kg, po qd administered as single dose for 7 days; type: organism-based; settings: in vivo, 168 h
[10] = Antiproliferative activity against human DU145 cells after 48 hrs by SRB assay; type: functional, cell-based; settings: DU-145, 48 h
Mus musculus [11] = test: Acute toxicity in Swiss albino mouse assessed as changes in relative weight of heart up to 1000 mg/kg, po qd administered as single dose for 7 days; type: organism-based; settings: in vivo, 168 h
Mus musculus [12] = test: Acute toxicity in Swiss albino mouse assessed as serum protein level at 50 mg/kg, po qd administered as single dose for 7 days (reference value: 2.91 +/- 0.31 mg/ml); type: organism-based; settings: in vivo, 168 h
Mus musculus [13] = test: Acute toxicity in Swiss albino mouse assessed as serum albumin level at 5 mg/kg, po qd administered as single dose for 7 days (reference value: 2.49 +/- 0.17 g/dl); type: organism-based; settings: in vivo, 168 h
Mus musculus [14] = test: Acute toxicity in Swiss albino mouse assessed as serum WBC level at 300 mg/kg, po qd administered as single dose for 7 days (reference value: 8.64 +/- 0.42 10^3/mm3); type: organism-based; settings: in vivo, 168 h
Mus musculus [15] = test: Acute toxicity in Swiss albino mouse assessed as serum haemoglobin level at 50 mg/kg, po qd administered as single dose for 7 days (reference value: 13.29 +/- 0.46 g/dl); type: organism-based; settings: in vivo, 168 h
Mus musculus [16] = test: Acute toxicity in Swiss albino mouse assessed as serum ALP level at 300 mg/kg, po qd administered as single dose for 7 days (reference value: 292.13 +/- 40.29 U/L); type: organism-based; settings: in vivo, 168 h
Mus musculus [17] = test: Acute toxicity in Swiss albino mouse assessed as serum creatinine level at 5 mg/kg, po qd administered as single dose for 7 days (reference value: 0.09 +/- 0.01 mg/dl); type: organism-based; settings: in vivo, 168 h
Mus musculus [18] = test: Acute toxicity in Swiss albino mouse assessed as serum albumin level at 1000 mg/kg, po qd administered as single dose for 7 days (reference value: 2.49 +/- 0.17 g/dl); type: organism-based; settings: in vivo, 168 h
Mus musculus [19] = test: Acute toxicity in Swiss albino mouse assessed as serum triglycerides level at 5 mg/kg, po qd administered as single dose for 7 days (reference value: 107.9 +/- 10.7 mg/dl); type: organism-based; settings: in vivo, 168 h
Mus musculus [20] = test: Acute toxicity in Swiss albino mouse assessed as serum ALP level at 5 mg/kg, po qd administered as single dose for 7 days (reference value: 292.13 +/- 40.29 U/L); type: organism-based; settings: in vivo, 168 h
Mus musculus [21] = test: Acute toxicity in Swiss albino mouse assessed as changes in posture up to 1000 mg/kg, po qd administered as single dose for 7 days; type: organism-based; settings: in vivo, 168 h
Mus musculus [22] = test: Acute toxicity in Swiss albino mouse assessed as serum cholesterol level at 5 mg/kg, po qd administered as single dose for 7 days (reference value: 68.37 +/- 4.42 mg/dl); type: organism-based; settings: in vivo, 168 h
Mus musculus [23] = test: Acute toxicity in Swiss albino mouse assessed as mortality up to 1000 mg/kg, po qd administered as single dose for 7 days; type: organism-based; settings: in vivo, 168 h
Mus musculus [24] = test: Acute toxicity in Swiss albino mouse assessed as serum SGPT level at 50 mg/kg, po qd administered as single dose for 7 days (reference value: 23.06 +/- 1.92 U/L); type: organism-based; settings: in vivo, 168 h
[25] = Cell cycle arrest in human FADU cells assessed as accumulation at S phase at 2.5 to 10 uM by propidium iodide staining based flow cytometry; type: functional
Mus musculus [26] = test: Acute toxicity in Swiss albino mouse assessed as serum ALP level at 50 mg/kg, po qd administered as single dose for 7 days (reference value: 292.13 +/- 40.29 U/L); type: organism-based; settings: in vivo, 168 h
Mus musculus [27] = test: Acute toxicity in Swiss albino mouse assessed as serum ALP level at 1000 mg/kg, po qd administered as single dose for 7 days (reference value: 292.13 +/- 40.29 U/L); type: organism-based; settings: in vivo, 168 h
Mus musculus [28] = test: Acute toxicity in Swiss albino mouse assessed as serum RBC level at 50 mg/kg, po qd administered as single dose for 7 days (reference value: 9.07 +/- 1.13 million/mm3); type: organism-based; settings: in vivo, 168 h
[29] = Antiproliferative activity against HEK293 cells after 48 hrs by SRB assay; type: cell-based; settings: Homo sapiens, HEK293, 48 h
Mus musculus [30] = test: Acute toxicity in Swiss albino mouse assessed as serum haemoglobin level at 1000 mg/kg, po qd administered as single dose for 7 days (reference value: 13.29 +/- 0.46 g/dl); type: organism-based; settings: in vivo, 168 h
Mus musculus [31] = test: Acute toxicity in Swiss albino mouse assessed as changes in absolute weight of lungs up to 1000 mg/kg, po qd administered as single dose for 7 days; type: organism-based; settings: in vivo, 168 h
[32] = Antiproliferative activity against human FADU cells after 48 hrs by SRB assay; type: functional, cell-based
Mus musculus [33] = test: Acute toxicity in Swiss albino mouse assessed as serum haemoglobin level at 5 mg/kg, po qd administered as single dose for 7 days (reference value: 13.29 +/- 0.46 g/dl); type: organism-based; settings: in vivo, 168 h
Mus musculus [34] = test: Acute toxicity in Swiss albino mouse assessed as effect on lymphocyte count up to 1000 mg/kg, po qd administered as single dose for 7 days; type: organism-based; settings: in vivo, 168 h
FaDu = test: Induction of apoptosis in human FADU cells assessed as increase in PARP cleavage at 5 to 10 uM by Western blot method; type: functional, cell-based
Mus musculus [35] = test: Acute toxicity in Swiss albino mouse assessed as changes in absolute weight of kidney up to 1000 mg/kg, po qd administered as single dose for 7 days; type: organism-based; settings: in vivo, 168 h
Mus musculus [36] = test: Acute toxicity in Swiss albino mouse assessed as serum SGOT level at 50 mg/kg, po qd administered as single dose for 7 days (reference value: 34.32 +/- 3.78 U/L); type: organism-based; settings: in vivo, 168 h

O=C1C=C(OCc2ccccc2)C(=O)c2ccccc21
Activity (Mus musculus [1]): 2.7 g/dL
Activity (Mus musculus [2]): Non-Toxic
Activity (Mus musculus [3]): Non-Toxic
Activity (Mus musculus [4]): Non-Toxic
Activity (Mus musculus [5]): Non-Toxic
Activity (Mus musculus [6]): 8.66 ×10³ /mm3
Activity (Mus musculus [7]): 8.89 million/mm3
Activity (Mus musculus [8]): 112.9 mg/dL
Activity (Mus musculus [9]): Non-Toxic
IC50 [10]: 10.6 µM
Activity (Mus musculus [11]): Non-Toxic
Activity (Mus musculus [12]): 2.92 mg/mL
Activity (Mus musculus [13]): 2.56 g/dL
Activity (Mus musculus [14]): 8.52 ×10³ /mm3
Activity (Mus musculus [15]): 13.26 g/dL
Activity (Mus musculus [16]): 386.48 U/L
Activity (Mus musculus [17]): 0.14 mg/dL
Activity (Mus musculus [18]): 2.88 g/dL
Activity (Mus musculus [19]): 130.9 mg/dL
Activity (Mus musculus [20]): 307.74 U/L
Activity (Mus musculus [21]): Non-Toxic
Activity (Mus musculus [22]): 65.28 mg/dL
Activity (Mus musculus [23]): Non-Toxic
Activity (Mus musculus [24]): 18.02 U/L
Activity [25]: Active
Activity (Mus musculus [26]): 304.24 U/L
Activity (Mus musculus [27]): 385.91 U/L
Activity (Mus musculus [28]): 8.54 million/mm3
IC50 [29]: > 150 µM
Activity (Mus musculus [30]): 13.28 g/dL
Activity (Mus musculus [31]): Non-Toxic
IC50 [32]: 5.27 µM
Activity (Mus musculus [33]): 12.65 g/dL
Activity (Mus musculus [34]): Non-Toxic
Activity (FaDu): Active
Activity (Mus musculus [35]): Non-Toxic
Activity (Mus musculus [36]): 30.19 U/L
